The values below come from patent publication US5283183A, “Cyclic FR-900520 microbial biotransformation agent” (Merck & Co., Inc., priority 1992, dated 1994).

Several values for one entry are separate records, joined by “and”; a condition that tells them apart may be missing. Equal values may be shown once. Entries after “also recorded” stand apart in the source; their conditions may differ. Read-outs that look alike come from different tables or passages of the source.

For one assay, the system named is mouse T lymphocytes. The experiment in a line: T-cell proliferation assay (ionomycin + PMA induced, tritiated thymidine uptake). The format is cell-based, mouse (C57B1/6). The method, then:
The principle of this assay is to measure the proliferation of mouse T lymphocytes stimulated with the combination of ionomycin plus PMA.
Cells were pelleted by centrifugation at 1500 rpm for 8 minutes. Contaminating red cells were removed by treating the pellet with ammonium chloride lysing buffer (GIBCO) for 2 minutes at 4° C. Cold medium was added and cells were again centrifuged at 1500 rpm for 8 minutes. T lymphocytes were then isolated by separation of the cell suspension on nylon wool columns as follows: Nylon wool columns were prepared by packing approximately 4 grams of washed and dried nylon wool into 20 ml plastic syringes. The columns were sterilized by autoclaving at 250° F. for 30 minutes. Nylon wool columns were wetted with warm (37° C.) culture medium and rinsed with the same medium. Washed spleen cells resuspended in warm medium were slowly applied to the nylon wool. The columns were then incubated in an upright position at 37° C. for 1 hour. Non-adherent T lymphocytes were eluted from the columns with warm culture medium and the cell suspensions were spun as above.
The cell suspension was immediately distributed into 96 well flat-bottom microculture plates (Costar) at 200 μl/well. […] The proliferation of T lymphocytes was assessed by measurement of tritiated thymidine incorporation. After 44 hours of culturing, the cells were pulse-labelled with 2 μCi/well of tritiated thymidine (NEN, Cambridge, Mass.). After another 4 hours of incubation, cultures were harvested on glass fiber filters using a multiple sample harvester. Radioactivity of filter discs corresponding to individual wells was measured by standard liquid scintillation counting methods (Betacounter). Mean counts per minute of replicate wells were calculated and the results expressed as percent inhibition of tritiated thymidine uptake (proliferation) as follows: [formula]

For assay [1] the following is noted: reputed; EPO Publication No. 0184162; cited from earlier work.

In general, IC50 refers to the concentration that gives 50% inhibition. As usually defined, the inhibition is the percentage by which the read-out fell short of the control. As to `CC[C@@H]1C=C2COC1(O)C[C@H](O)[C@@H](C)[C@@H](/C(C)=C/[C@@H]1CC[C@@H](O)[C@H](OC)C1)OC(=O)[C@@H]1CCCCN1C(=O)C(=O)[C@]1(O)O[C@H]([C@@H](OC)C[C@@H](C)C2)[C@@H](OC)C[C@H]1C` [Compound I], the IC50 with mouse T lymphocytes (5 additional experiments, individual values) was 1.92 ng/mL and 5.20 ng/mL and 4.80 ng/mL and 4.50 ng/mL; in the assay with mouse T lymphocytes (Mus musculus, T-lymphocyte, based on 5 additional experiments, read-out: IC50, general range) it was 1.57 to 5.2 ng/mL; in the assay with mouse T lymphocytes (Mus musculus, T-lymphocyte, mean of all 6 runs, ± SEM, read-out: mean IC50), 4.36 ± 1.7 nM; in the assay with mouse T lymphocytes (Mus musculus, T-lymphocyte, run of the Table, read-out: IC50) it was 3.17 ng/mL. The “Inhibition of T-cell proliferation after addition of IL2” value with mouse T lymphocytes (50 units/ml recombinant IL2 at the initiation of culture) is recorded as “reversed”. The inhibition at 0.0008 µM in the assay with mouse T lymphocytes (Mus musculus, T-lymphocyte, Compound I 0.8 nM, read-out: Percent of Inhibition) worked out at 16%. For the same compound, the inhibition at 0.0016 µM with mouse T lymphocytes (Mus musculus, T-lymphocyte, Compound I 1.6 nM, read-out: Percent of Inhibition) amounted to 19%. Besides, the inhibition at 0.0031 µM in the assay with mouse T lymphocytes (Mus musculus, T-lymphocyte, Compound I 3.1 nM, read-out: Percent of Inhibition) was 55%. Also, in the assay on mouse T lymphocytes (Mus musculus, T-lymphocyte, Compound I 6.2 nM, read-out: Percent of Inhibition), the inhibition at 0.0062 µM is 78%. In addition, the inhibition at 0.0125 µM in the assay with mouse T lymphocytes (Mus musculus, T-lymphocyte, Compound I 12.5 nM, read-out: Percent of Inhibition) came to 91%. In the assay on mouse T lymphocytes (Mus musculus, T-lymphocyte, Compound I 25.0 nM, read-out: Percent of Inhibition), the inhibition at 0.025 µM is 94%. For the same compound, the inhibition at 0.05 µM with mouse T lymphocytes (Mus musculus, T-lymphocyte, Compound I 50.0 nM, read-out: Percent of Inhibition) came to 94%. In addition, the immunosuppressant activity result in the assay with mouse T lymphocytes (qualitative statement) was “positive inhibition of T-cell activation; also recorded: positive immunosuppressive activity”.
In the case of `C=CC[C@@H]1/C=C(\C)C[C@H](C)C[C@H](OC)[C@H]2O[C@@](O)(C(=O)C(=O)N3CCCC[C@H]3C(=O)O[C@H](/C(C)=C/[C@@H]3CC[C@@H](O)[C@H](OC)C3)[C@H](C)[C@@H](O)CC1=O)[C@H](C)C[C@@H]2OC` [FK-506], in assay [1], the “times more effective than cyclosporin” value is reported as 100 times.
